Assays:
[1] = test system: healthy subjects; experiment: Analyzing test of blood components (myoglobin, lactic acid, CPK) after exercise stress; assay type: in vivo, human; conditions: value just after exercise stress = 100%
Procedure: To 20 healthy subjects (14 males and 6 females), was given an exercise stress of 15 km running within a limited time of 2 hours. The 20 subjects who run the whole distance within the limited time were divided into 2 groups by the arrival order, that is, one group consisting of 10 subjects of odd-numbered order of arrival (8 male subjects and 2 female subjects) and the other group consisting of 10 subjects of even-numbered order of arrival (6 male subjects and 4 female subjects). To the group of odd numbers was administered tranilast (hereinafter referred to as Medicine administration group) and to the group of even numbers was not administered (hereinafter referred to as Control group). […]
In each group, bloods were collected at a time of just before, just after, 3 days and 7 days after the exercise stress. And, blood components considered relevant to muscular fatigue and muscular damage (myoglobin, lactic acid and CPK) were analyzed, and relative degrees of changes of blood concentrations which are converted into relative values to the concentrations just after the exercise stress set as 100% were calculated.

[2] = repeated administration of 300 mg a day; cited from earlier work

**Q.** What does the source list for `COc1ccc(/C=C/C(=O)Nc2ccccc2C(=O)O)cc1OC` [tranilast, N-(3,4-dimethoxycinnnamoyl)anthranilic acid]?
**A.** relative degree of change of blood concentration of CPK ([1]; 3 days after exercise stress, control 160% or more): about 110%; relative degree of change of blood concentration of CPK ([1]; 7 days after exercise stress, control about 90%): about 60%; time at which tranilast concentration in blood reached the maximum [2]: 2 days
